Assay results as given in PubChem BioAssay AID1963437 (Molecular Pharmacology Branch, DTP, NCI, 2024).
pIC50: −log10 of the molar value.

Tested on: OVCAR-8 complex spheroid, growth inhibition
Assay: Anticancer human tumor OVCAR-8 cell line growth inhibition [Asc];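 further: spheroids exposed to agents for 7 days before readout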;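 on viability, T/C: percent viability relative to DMSO vehicle wells taken as 100%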
Details: for pIC50: curve of first compound; for viability, T/C: stronger effect = lower value; active means viability on the fitted dose curve at most 10% of control; inactive means the rest
In short: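 Complex solid-tumor spheroids incorporating human endothelial and mesenchymal stem cells received single agents or combinations over half-log dilution ranges anchored to clinical Cmax.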

[1] = second compound 0.0316 µM, first compound 0.0316 µM
[2] = second compound 0.0316 µM, first compound 0.1 µM
[3] = second compound 0.0316 µM, first compound 0.316 µM
[4] = second compound 0.0316 µM, first compound 1 µM
[5] = second compound 0.1 µM, first compound 0.0316 µM
[6] = second compound 0.1 µM, first compound 0.1 µM
[7] = second compound 0.1 µM, first compound 0.316 µM
[8] = second compound 0.1 µM, first compound 1 µM
[9] = second compound 0.316 µM, first compound 0.0316 µM
[10] = second compound 0.316 µM, first compound 0.1 µM
[11] = second compound 0.316 µM, first compound 0.316 µM
[12] = second compound 0.316 µM, first compound 1 µM
[13] = second compound 1 µM, first compound 0.0316 µM
[14] = second compound 1 µM, first compound 0.1 µM
[15] = second compound 1 µM, first compound 0.316 µM
[16] = second compound 1 µM, first compound 1 µM
[17] = second compound 3.16 µM, first compound 0.0316 µM
[18] = second compound 3.16 µM, first compound 0.1 µM
[19] = second compound 3.16 µM, first compound 0.316 µM
[20] = second compound 3.16 µM, first compound 1 µM
[21] = second compound 10 µM, first compound 0.0316 µM
[22] = second compound 10 µM, first compound 0.1 µM
[23] = second compound 10 µM, first compound 0.316 µM
[24] = second compound 10 µM, first compound 1 µM

C#Cc1c(F)ccc2cc(O)cc(-c3ncc4c(N5CC6CCC(C5)N6)nc(OCC56CCCN5CC(F)C6)nc4c3F)c12 (stereo unspecified) + Cc1c(S(C)(=O)=O)c(-c2cc(F)cc(N3CCN(c4ccc(NS(=O)(=O)c5ccc(NC(CCN6CCC(C(=O)OCCCP(=O)(O)O)CC6)CSc6ccccc6)c(S(=O)(=O)C(F)(F)F)c5)cc4)CC3)c2)c(-c2ccc(Cl)cc2)n1C(C)C
inactive: viability, T/C [1] 86.8% | viability, T/C [2] 97.1% | viability, T/C [3] 87.3% | viability, T/C [4] 76.6% | viability, T/C (second compound 0.0316 µM, first compound 3.16 µM) 84.9% | viability, T/C (second compound 0.0316 µM, first compound 10 µM) 99.8% | viability, T/C [5] 85.2% | viability, T/C [6] 72.8% | viability, T/C [7] 90.1% | viability, T/C [8] 85.5% | viability, T/C (second compound 0.1 µM, first compound 3.16 µM) 90.4% | viability, T/C (second compound 0.1 µM, first compound 10 µM) 84.7% | viability, T/C [9] 78.2% | viability, T/C [10] 102% | viability, T/C [11] 95.4% | viability, T/C [12] 105% | viability, T/C (second compound 0.316 µM, first compound 3.16 µM) 94% | viability, T/C (second compound 0.316 µM, first compound 10 µM) 107% | viability, T/C [13] 95.1% | viability, T/C [14] 79% | viability, T/C [15] 84.6% | viability, T/C [16] 111% | viability, T/C (second compound 1 µM, first compound 3.16 µM) 106% | viability, T/C (second compound 1 µM, first compound 10 µM) 116% | viability, T/C [17] 85.1% | viability, T/C [18] 83.2% | viability, T/C [19] 89.8% | viability, T/C [20] 92.4% | viability, T/C (second compound 3.16 µM, first compound 3.16 µM) 102% | viability, T/C (second compound 3.16 µM, first compound 10 µM) 108% | viability, T/C [21] 91.5% | viability, T/C [22] 92.2% | viability, T/C [23] 81.1% | viability, T/C [24] 113% | viability, T/C (second compound 10 µM, first compound 3.16 µM) 94.2% | viability, T/C (second compound 10 µM, first compound 10 µM) 122%
< 5.00: pIC50 (second compound 0.0316 µM) | pIC50 (second compound 0.1 µM) | pIC50 (second compound 0.316 µM) | pIC50 (second compound 1 µM) | pIC50 (second compound 3.16 µM) | pIC50 (second compound 10 µM)

CNC(C)C(=O)NC1CN(S(=O)(=O)c2cccc(S(=O)(=O)N3CCC4CCC(C(=O)NC(c5ccccc5)c5ccccc5)N4C(=O)C(NC(=O)C(C)NC)C3)c2)CCC2CCC(C(=O)NC(c3ccccc3)c3ccccc3)N2C1=O (stereo unspecified) + Cc1c(S(C)(=O)=O)c(-c2cc(F)cc(N3CCN(c4ccc(NS(=O)(=O)c5ccc(NC(CCN6CCC(C(=O)OCCCP(=O)(O)O)CC6)CSc6ccccc6)c(S(=O)(=O)C(F)(F)F)c5)cc4)CC3)c2)c(-c2ccc(Cl)cc2)n1C(C)C
< 6.00: pIC50 (second compound 0.0316 µM) | pIC50 (second compound 0.1 µM) | pIC50 (second compound 0.316 µM) | pIC50 (second compound 1 µM) | pIC50 (second compound 3.16 µM) | pIC50 (second compound 10 µM)
inactive: viability, T/C (second compound 0.0316 µM, first compound 0.00316 µM) 97.5% | viability, T/C (second compound 0.0316 µM, first compound 0.01 µM) 94.6% | viability, T/C [1] 88.4% | viability, T/C [2] 90.9% | viability, T/C [3] 67.5% | viability, T/C [4] 57.5% | viability, T/C (second compound 0.1 µM, first compound 0.00316 µM) 92.2% | viability, T/C (second compound 0.1 µM, first compound 0.01 µM) 84.5% | viability, T/C [5] 80.8% | viability, T/C [6] 76.5% | viability, T/C [7] 64.5% | viability, T/C [8] 59.7% | viability, T/C (second compound 0.316 µM, first compound 0.00316 µM) 106% | viability, T/C (second compound 0.316 µM, first compound 0.01 µM) 79.2% | viability, T/C [9] 86.8% | viability, T/C [10] 80.3% | viability, T/C [11] 58.9% | viability, T/C [12] 53.1% | viability, T/C (second compound 1 µM, first compound 0.00316 µM) 123% | viability, T/C (second compound 1 µM, first compound 0.01 µM) 97.1% | viability, T/C [13] 86.8% | viability, T/C [14] 80.6% | viability, T/C [15] 59.4% | viability, T/C [16] 60.1% | viability, T/C (second compound 3.16 µM, first compound 0.00316 µM) 91.2% | viability, T/C (second compound 3.16 µM, first compound 0.01 µM) 86.8% | viability, T/C [17] 84.7% | viability, T/C [18] 67.3% | viability, T/C [19] 57.5% | viability, T/C [20] 58.2% | viability, T/C (second compound 10 µM, first compound 0.00316 µM) 101% | viability, T/C (second compound 10 µM, first compound 0.01 µM) 78.2% | viability, T/C [21] 78.9% | viability, T/C [22] 60.2% | viability, T/C [23] 52% | viability, T/C [24] 59.2%

Cc1nc(N2CCC3(CC2)COC(C)C3N)c(CO)nc1Sc1ccnc(N)c1Cl (stereo unspecified) + Cc1c(S(C)(=O)=O)c(-c2cc(F)cc(N3CCN(c4ccc(NS(=O)(=O)c5ccc(NC(CCN6CCC(C(=O)OCCCP(=O)(O)O)CC6)CSc6ccccc6)c(S(=O)(=O)C(F)(F)F)c5)cc4)CC3)c2)c(-c2ccc(Cl)cc2)n1C(C)C
< 5.52: pIC50 (second compound 0.0316 µM) | pIC50 (second compound 0.1 µM) | pIC50 (second compound 0.316 µM) | pIC50 (second compound 1 µM) | pIC50 (second compound 3.16 µM) | pIC50 (second compound 10 µM)
inactive: viability, T/C (second compound 0.0316 µM, first compound 0.00949 µM) 97% | viability, T/C (second compound 0.0316 µM, first compound 0.03 µM) 96.6% | viability, T/C (second compound 0.0316 µM, first compound 0.0949 µM) 159% | viability, T/C (second compound 0.0316 µM, first compound 0.3 µM) 188% | viability, T/C (second compound 0.0316 µM, first compound 0.949 µM) 226% | viability, T/C (second compound 0.0316 µM, first compound 3 µM) 206% | viability, T/C (second compound 0.1 µM, first compound 0.00949 µM) 91.3% | viability, T/C (second compound 0.1 µM, first compound 0.03 µM) 148% | viability, T/C (second compound 0.1 µM, first compound 0.0949 µM) 152% | viability, T/C (second compound 0.1 µM, first compound 0.3 µM) 190% | viability, T/C (second compound 0.1 µM, first compound 0.949 µM) 212% | viability, T/C (second compound 0.1 µM, first compound 3 µM) 202% | viability, T/C (second compound 0.316 µM, first compound 0.00949 µM) 97.4% | viability, T/C (second compound 0.316 µM, first compound 0.03 µM) 132% | viability, T/C (second compound 0.316 µM, first compound 0.0949 µM) 176% | viability, T/C (second compound 0.316 µM, first compound 0.3 µM) 200% | viability, T/C (second compound 0.316 µM, first compound 0.949 µM) 231% | viability, T/C (second compound 0.316 µM, first compound 3 µM) 175% | viability, T/C (second compound 1 µM, first compound 0.00949 µM) 92.6% | viability, T/C (second compound 1 µM, first compound 0.03 µM) 139% | viability, T/C (second compound 1 µM, first compound 0.0949 µM) 176% | viability, T/C (second compound 1 µM, first compound 0.3 µM) 210% | viability, T/C (second compound 1 µM, first compound 0.949 µM) 205% | viability, T/C (second compound 1 µM, first compound 3 µM) 169% | viability, T/C (second compound 3.16 µM, first compound 0.00949 µM) 102% | viability, T/C (second compound 3.16 µM, first compound 0.03 µM) 139% | viability, T/C (second compound 3.16 µM, first compound 0.0949 µM) 182% | viability, T/C (second compound 3.16 µM, first compound 0.3 µM) 221% | viability, T/C (second compound 3.16 µM, first compound 0.949 µM) 167% | viability, T/C (second compound 3.16 µM, first compound 3 µM) 144% | viability, T/C (second compound 10 µM, first compound 0.00949 µM) 110% | viability, T/C (second compound 10 µM, first compound 0.03 µM) 152% | viability, T/C (second compound 10 µM, first compound 0.0949 µM) 177% | viability, T/C (second compound 10 µM, first compound 0.3 µM) 206% | viability, T/C (second compound 10 µM, first compound 0.949 µM) 174% | viability, T/C (second compound 10 µM, first compound 3 µM) 121%
